Measurements: patent publication US20150307841A1, “Composition for Promoting Differentiation and Proliferation of Neural Stem Cell and Neural Precursor Cell” (priority 2014, published 2015)

What was measured:
[1] = tested on: hippocampal neural precursor cells (NPCs); test: Immunoblotting assay of VGluT1, ChAT, GAD65/67 in cultured hippocampal neural precursor cells; assay type: cell-based, rat
Excerpt: Pregnant Sprague-Dawley rats purchased from Orient Animal Breeding Center (a branch of Charles River Laboratories, Gyeonggi-do, Korea) were sacrificed by exposing to CO2 inhalation. Hippocampal neural precursor cells (NPCs) were isolated from the brain of the E16 rat embryo according to the method of Shin M H et al. (Exp Mol Med, 2002) with slight modifications.
Briefly, hippocampi were aseptically dissected from the embryonic forebrain, mechanically dissociated in Ca^2+/Mg^2+-free Hank's balanced salt solution (HBSS) and then plated at 7×10^5 cells/cm^2 on 60-mm dishes pre-coated with 15 μg/mL poly-L-ornithine and 1 μg/mL fibronectin. The neural precursor cells were cultured in serum-free N2 media supplemented with 10 ng/mL bFGF in 5% CO2 for 3 days and then detached using 0.05% trypsin-ethylenediaminetetraacetic acid (EDTA). The neural precursor cells were plated on 12-mm cover glasses (Bellco Co., Vineland, N.J., USA) and cultured one more day in N2 media supplemented with 10 ng/mL bFGF in 5% CO2 (primary culturing).
Following the primary culturing in (1), the cultured hippocampal neural precursor cells were lysed in 80 μL of a cold RIPA buffer containing a protease inhibitor cocktail for immunoblotting assay of VGluT1, ChAT and GAD65/67. After centrifugation for 10 minutes at 13,000×g, the supernatants were divided into Eppendorf tubes and stored at −80° C.
Protein quantification assay was performed using a Bradford protein assay kit (Bio-Rad, Hercules, Calif., USA). […]
The number of the VGluT1- and GAD-positive cells in the brain slice samples 1 week and 4 weeks after the administration of soyasaponin I was presented per microscopic field (×400-VGluT1, ×800-GAD67) and the number of the ChAT-positive cells was presented per each hippocampal region (10-12 confocal laser microscopic fields). […] Western blotted membranes were analyzed using the multi-gauge, bio-imaging program on LAS-4000 Mini (Fujifilm Life Science, Stamford, Conn., USA). […]

[2] = tested on: memory-deficient model rats; test: Passive avoidance test in memory-deficient model rats; assay type: in vivo, rat
Excerpt: Ibotenic acid is a neurotoxin present in mushrooms and is known to cause powerful damage to neurons when directly injected into the brain of mice or rats. In particular, because senile plaques and neuronal cell death appear in the entorhinal cortex and hippocampus in early Alzheimer's disease patients (Ueki A et al. J Neurol Sci, 1994), memory-deficient model rats were generated by injecting ibotenic acid (IBO) into the entorhinal cortex. The surgical protocol followed Heo H et al.'s method (J Ethnopharmacol, 2009) with some modifications. In the model animals, the injection of ibotenic acid induces cell death not only in the entorhinal cortex but also in the CA and DG regions of the hippocampus and impairs hippocampus-related learning and memory abilities.
The 6-week-old rats were anesthetized with equithesin (350 mM pentobarbital sodium, 250 mM chloral hydrate, 85 mM MgSO4 and 40% propylene glycol in 10% ethanol, 2 mL/kg). […]
The passive avoidance was carried out as described in Heo H et al. (J Ethnopharmacol, 2009), with the same number of animals per group as the Y-maze test. […] Exactly 24 hours after the acquisition trial, the rats were placed in the lighted chamber again and the latency time to enter the dark chamber was measured for 720 seconds (retention trial). […]

Question: Which “Expression level of ChAT protein compared to the normal group” value ([1]; 0.5, 1, 2 μM test groups, normalized to β-actin and vehicle) does the source give for `C[C@@H]1O[C@@H](O[C@H]2[C@H](O[C@H]3[C@H](O[C@H]4CC[C@@]5(C)[C@@H](CC[C@]6(C)[C@@H]5CC=C5[C@@H]7CC(C)(C)C[C@@H](O)[C@]7(C)CC[C@]56C)[C@@]4(C)CO)O[C@H](C(=O)O)[C@@H](O)[C@@H]3O)O[C@H](CO)[C@H](O)[C@@H]2O)[C@H](O)[C@H](O)[C@H]1O` [soyasaponin I] here?
Answer: 1.9 fold

Question: What about the “Expression of GAD65/67 protein” value ([1]; treatment for 6 days) of the same compound?
Answer: increased relatively little

Question: What about the “Expression of VGluT1 protein” value ([1]; treatment for 6 days) of the same compound?
Answer: increased relatively little

Question: What about the “Passive avoidance latency time, relative to that of the normal group” value ([2]; 10 mg/kg oral, tests 2 weeks after administration (Experimental Example 2)) of the same compound?
Answer: 89.65%

Question: And the “Passive avoidance latency time” value ([2]; Experimental Example 1, retention trial 24 hours after shock)?
Answer: improvement in latency time
